In brackets after ≈: the same amount, converted by molar mass.

For data set [1], the system named is Candida albicans ATCC 90028. Briefly: In vitro susceptibility, CLSI M27-A3 broth microdilution (MIC/MFC). It counts as cell-based. The conditions noted are these: for MFC / MIC50: ATCC90028, C. albicans ATCC 90028; for MIC: ATCC90028, C. albicans ATCC 90028, 37 °C 24 h. The protocol:
(§1) Susceptibility tests were performed according to the M27-A3 protocol proposed by the Clinical & Laboratory Standards Institute (CLSI) (2008). Briefly, 2-HC and 3′-HC were solubilized in dimethyl sulfoxide at 12.500 g/L and stored at −80 °C. […] The final concentration of 2-HC and 3′-HC in the RPMI medium was 0.24–125.0 mg/L. Dilutions of the compounds were performed in a 96-well microplate at a total volume of 100 μL/well. Fungal suspensions were prepared in 0.85% NaCl and were adjusted to a final concentration of 5 × 10^3 cells/mL. Then, 100 μL of the fungal suspension was added to all wells. Microplates were incubated at 37 °C for 24 h. […] Minimal inhibitory concentration (MIC) was considered the lowest concentration of the drug that inhibited the visible growth of yeast. […] Samples were processed in triplicate, and each experiment was carried out in triplicate.
(In general: Dilution methods test growth across graded concentrations, often in twofold steps.)

In data set [2] the test system is Candida glabrata ATCC 90030. The description is as above. It counts as cell-based. The conditions noted are these: Nakaseomyces glabratus, ATCC90030; for MFC: C. glabrata ATCC 90030; for MIC: C. glabrata ATCC 90030, 37 °C 24 h. The method, then: as §1
In data set [3] the test system is Candida krusei ATCC 6258. The data set is described as above. Conditions: Pichia kudriavzevii, ATCC6258; for MFC / MIC50: C. krusei ATCC 6258; for MIC: C. krusei ATCC 6258, 37 °C 24 h. It counts as cell-based. The method, then:
as §1

Data set [4] relates to Candida parapsilosis ATCC 22019. The description is as above. Conditions: Lodderomyces parapsilosis, ATCC22019; for MFC: C. parapsilosis ATCC 22019; for MIC: C. parapsilosis ATCC 22019, 37 °C 24 h. It counts as cell-based. The method, then: as §1
Data set [5] deals with Candida tropicalis ATCC 750. The description is as above. The class given is cell-based. Conditions: for MFC / MIC50: ATCC750, C. tropicalis ATCC 750; for MIC: ATCC750, C. tropicalis ATCC 750, 37 °C 24 h. The method, then:
as §1

Data set [6] can be described thus: In vitro cytotoxicity (resazurin, 72 h). Conditions: human. The method, then:
(§2) Cytotoxicity assays were performed on the C33A cell line (uterine cervical carcinoma epithelium) obtained from the ATCC (Manassas, VA, USA). 5 × 10^4 cells/well were added using RPMI medium with 10% fetal bovine serum into 96-well plates. Cells were incubated at 36.5 °C with 5% CO2 for 24 h to form a cell monolayer. 2-HC and 3′-HC were analyzed in range concentrations from 0.1–75 μg/mL. In combinations, 2-HC and 3′-HC were analyzed from 0.48–31.25 mg/L and 0.48–62.5 mg/L. Cells were exposed for 72 h, and after, cytotoxicity was assessed by adding 100 μL of resazurin (50 μM) and measured by a microplate reader at 570 nm–600 nm. A negative control with untreated cells (100% living cells) and a positive control (DMSO 40% to induce cell death) were also used. The results were evaluated in triplicate independent. […] Selective index (SI) was calculated using SI=IC50/MIC50 .
On the technique in general: The colour change of resazurin is a common sign of viable cells or microbes.

Data set [7] relates to C33A cell line (uterine cervical carcinoma epithelium). Briefly: In vitro cytotoxicity (resazurin, 72 h). The conditions noted are these: Homo sapiens, C-33-A, 72 h. The method, then: as §2
For data set [8], the system named is Candida albicans ATCC 90028. Briefly: Combinatorial antifungal activity (checkerboard). It counts as cell-based. Conditions: ATCC90028, C. albicans, drug alone in checkerboard, read-out: MIC80 (individual). From the text: (§3) Candida albicans ATCC 90028, Candida tropicalis ATCC 750, and Candida krusei ATCC 6258 were used. These species were selected for these assays because C. albicans is the most prevalent etiological agent in fungal infections caused by the genus Candida, and C. tropicalis is the most frequent non-albicans species. C. krusei was used to represent the species most resistant to azole drugs. Thus, 2-HC and 3′-HC were combined with FCZ and CTZ and associated with each other. Their combinatorial antifungal activity was determined through the checkerboard method using 96-well microplates, according to Bellio et al. (2021). […] Microplates were incubated at 37 °C for 24 h. […] The negative control was only the culture medium, and the positive control was composed of microorganisms and the culture medium. […] From this, it was calculated the fractional inhibitory concentration (FIC) and the fractional inhibitory concentration index (FICI) of each well of the interface as follows: […]

Data set [9] has as its system Candida krusei ATCC 6258. Put plainly: Combinatorial antifungal activity (checkerboard). It counts as cell-based. Conditions: Pichia kudriavzevii, ATCC6258; C. krusei, drug alone in checkerboard; read-out: MIC80 (individual).
Description: as §3

The test system of data set [10] is Candida tropicalis ATCC 750. Put plainly: Combinatorial antifungal activity (checkerboard). The class given is cell-based. The conditions noted are these: drug alone in checkerboard; for MIC80 (individual): C. tropicalis; for MIC80: Candida tropicalis, ATCC750, C. tropicalis, read-out: MIC80 (individual).
Description: as §3

Another data set concerns C. albicans ATCC 90028. Briefly: Therapeutic efficacy in Galleria mellonella infected with C. albicans. The class given is in vivo. The conditions noted are these: for efficacy in the antifungal activity: substances alone at MIC values and LCs, infected larvae.
For data set [11], the system named is Mycobacterium tuberculosis. The arrangement: method as in PMID 34790584. Conditions: cited from earlier work.
In data set [12] the test system is Paracoccidioides brasiliensis. Also on record: method as in PMID 34790584. The conditions noted are these: cited from earlier work.
For data set [13], the system named is Mycobacterium tuberculosis and Paracoccidioides brasiliensis mixed biofilm. The arrangement: method as in PMID 34790584. The conditions noted are these: cited from earlier work.
The next data set concerns C33A cell line. Conditions: in the concentration ranges tested in the combinations. The method, then: as §2

Usually MFC stands for the lowest tested concentration that kills the fungus rather than only halting it. A low value points to greater fungicidal potency. One may read the MIC50 as an inhibitory concentration at the 50% level, which refers to growth in some studies and to a panel of isolates in others. Low values mean greater potency, high ones weaker potency. A word on the MIC: it is the least concentration at which growth counts as inhibited. For orientation: viability means a per cent measure of how many cells are alive, often set against a control. Usually IC50 stands for the point on the concentration scale where inhibition reaches its midpoint. As a reminder, the MIC80 is an inhibitory concentration at the 80% level, which refers to growth in some studies and to a panel of isolates in others. In the case of `O=C(/C=C/c1ccccc1O)c1ccccc1` [2-HC, 2-hydroxychalcone], the MFC was > 125 mg/L in [1]; > 125 mg/L in [2]; 125 mg/L (≈ 557 µM) in the data set on Candida krusei ATCC 6258 [3]; 15.6 mg/L (≈ 69.6 µM) in data set [4]; > 125 mg/L in [5]. The MIC50 in data set [1] came out at 15.6 mg/L (≈ 69.7 µM); with Candida krusei ATCC 6258 [3], 15.6 mg/L (≈ 69.7 µM); in data set [5], 7.81 mg/L (≈ 34.8 µM). Further, the MIC is 31.3 mg/L (≈ 140 µM) in [1]; 15.6 mg/L (≈ 69.6 µM) in data set [2]; 7.8 mg/L (≈ 34.8 µM) with Candida krusei ATCC 6258 [3]; 7.8 mg/L (≈ 34.8 µM) in [4]; 31.3 mg/L (≈ 140 µM) in data set [5]. Further, the viability at 72 h, 9.38 mg/L in data set [6] was > 80%. Further, the IC50 in data set [7] stood at 13 mg/L. Besides, the MIC80 in [8] is 31.2 mg/L; with Candida krusei ATCC 6258 [9] it was 31.2 mg/L; in data set [10], 62.5 mg/L. Moreover, the “MIC80 (individual)” value in data set [10] is recorded as 31.25 mg/L. The “efficacy in the antifungal activity” value with C. albicans ATCC 90028 is “did not demonstrate efficacy”.
For `O=C(/C=C/c1ccccc1)c1cccc(O)c1` [3′-HC, 3′-hydroxychalcone], the MFC in data set [1] was > 125 mg/L; in data set [2], 31.3 mg/L (≈ 140 µM); in the data set with Candida krusei ATCC 6258 [3], 31.3 mg/L (≈ 140 µM); in [4], 31.3 mg/L (≈ 140 µM); in [5], 125 mg/L (≈ 557 µM). Further, the results for the MIC50 (in data set [1]; in the data set on Candida krusei ATCC 6258 [3]; in data set [5]) were 15.6 mg/L (≈ 69.7 µM), 7.81 mg/L (≈ 34.8 µM) and 7.81 mg/L (≈ 34.8 µM), respectively. The minimal inhibitory concentration (MIC) is 31.3 mg/L (≈ 140 µM) in [1]; 7.8 mg/L (≈ 34.8 µM) in [2]; 7.8 mg/L (≈ 34.8 µM) in the data set on Candida krusei ATCC 6258 [3]; 15.6 mg/L (≈ 69.6 µM) in [4]; 31.3 mg/L (≈ 140 µM) in data set [5]; 7.8 mg/L (≈ 34.8 µM) in data set [11]. Besides, the minimum inhibitory concentration (MIC) in data set [12] is 0.97 mg/L (≈ 4.33 µM). Besides, the viability at 72 h, 9.38 mg/L in data set [6] was > 80%. The half-maximal inhibitory concentration (IC50) in [7] was 11.9 mg/L. Further, the MIC80 in data set [8] came to 31.2 mg/L; with Candida krusei ATCC 6258 [9], 15.6 mg/L; in data set [10] it was 62.5 mg/L. In data set [10], the “MIC80 (individual)” value is reported as 31.25 mg/L. Besides, the “efficacy in the antifungal activity” value in the data set with C. albicans ATCC 90028 was “did not demonstrate efficacy”. Besides, in [13], the biofilm degradation result is listed as “above 50%”.
Regarding `C[C@@H]1[C@H](O)[C@@H](C)/C=C/C=C/C=C/C=C/C=C/C=C/C=C/[C@H](O[C@@H]2O[C@H](C)[C@@H](O)[C@H](N)[C@@H]2O)C[C@@H]2O[C@](O)(C[C@@H](O)C[C@@H](O)[C@H](O)CC[C@@H](O)C[C@@H](O)CC(=O)O[C@H]1C)C[C@H](O)[C@H]2C(=O)O` [AMB, amphotericin B, reference compound], the MFC in data set [1] came out at 1 mg/L (≈ 1.08 µM); in data set [2], 0.5 mg/L (≈ 0.541 µM); against Candida krusei ATCC 6258 [3], 1 mg/L (≈ 1.08 µM); in data set [4], 0.3 mg/L (≈ 0.325 µM); in [5], 1 mg/L (≈ 1.08 µM). Besides, the MIC came to 0.2 mg/L (≈ 0.216 µM) in [1]; 0.4 mg/L (≈ 0.433 µM) in data set [2]; 0.1 mg/L (≈ 0.108 µM) against Candida krusei ATCC 6258 [3]; 0.1 mg/L (≈ 0.108 µM) in data set [4]; 0.05 mg/L (≈ 0.0541 µM) in data set [5].
As to `Clc1ccccc1C(c1ccccc1)(c1ccccc1)n1ccnc1` [CTZ, clotrimazole, reference compound], the minimum fungicidal concentration (MFC) in [1] was > 4 mg/L; in data set [2], > 2 mg/L; in the data set on Candida krusei ATCC 6258 [3], > 4 mg/L; in data set [4], 0.1 mg/L (≈ 0.29 µM); in [5], > 4 mg/L. Besides, the MIC in data set [1] stood at 0.01 mg/L (≈ 0.029 µM); in data set [2], 0.004 mg/L (≈ 0.0116 µM); against Candida krusei ATCC 6258 [3], 0.06 mg/L (≈ 0.174 µM); in data set [4] it was 0.03 mg/L (≈ 0.087 µM); in data set [5] it was 0.01 mg/L (≈ 0.029 µM). Further, the MIC80 in data set [8] is 0.03 mg/L; with Candida krusei ATCC 6258 [9] it was 0.13 mg/L; in [10] it was 0.03 mg/L. Also, in the data set on C33A cell line, the cytotoxicity entry is reported as “did not present cytotoxicity”.
With `OC(Cn1cncn1)(Cn1cncn1)c1ccc(F)cc1F` [FCZ, Fluconazole, reference compound], the MFC is > 64 mg/L in data set [1]; > 64 mg/L in data set [2]; 128 mg/L (≈ 418 µM) in the data set with Candida krusei ATCC 6258 [3]; 2 mg/L (≈ 6.53 µM) in [4]; > 64 mg/L in [5]. The minimal inhibitory concentration (MIC) in data set [1] came out at 0.25 mg/L (≈ 0.816 µM); in data set [2], 0.5 mg/L (≈ 1.63 µM); with Candida krusei ATCC 6258 [3], 32 mg/L (≈ 104 µM); in data set [4] it was 1 mg/L (≈ 3.27 µM); in data set [5], 0.5 mg/L (≈ 1.63 µM). The MIC80 was 0.5 mg/L in data set [8], 32 mg/L in the data set on Candida krusei ATCC 6258 [9] and 0.5 mg/L in [10]. The cytotoxicity result in the data set on C33A cell line is on record as “did not present cytotoxicity”. In addition, the “health indexes vs infection control group” value with C. albicans ATCC 90028 (larvae infected with C. albicans ATCC 90028, all doses, FCZ 350 mg/L) was “statistically different from the infection control group”. The “survival curves vs infection control group” value in the data set on C. albicans ATCC 90028 (larvae infected with C. albicans ATCC 90028, treated 1 h after infection, five days, FCZ 350 mg/L) is reported as “statistically different from the infection control group”.

Source of the values: PMC11279727, “Bioprospecting, Synergistic Antifungal and Toxicological Aspects of the Hydroxychalcones and Their Association with Azole Derivates against Candida spp. for Treating Vulvovaginal Candidiasis” (Pharmaceutics, 2024).
